# Experimental data taken from US10919887B2, “Salts and solid forms of a monobactam antibiotic” (Novartis AG, priority 2015, dated 2021).
# What was measured:
# [1] = Stability of Compound X and its salts in aqueous solution; assay type: physicochemical; settings: in solution, before addition of arginine or other base
# Description: It is important for a drug product to be stable enough to avoid significant degradation when it is shipped and stored under commercially practical conditions. The inventors have discovered that Compound X in solution is preferably used and stored at a pH between 4 and 6, preferably between 4.0 and 5.5, for maximum stability in the presence of moisture. Optimal solution stability is achieved at a pH of about 4.0 to 5.5 Accordingly, the invention provides pharmaceutical compositions comprising Compound X at a pH between 4 and 6, preferably between 4.0 and 5.5, and more preferably at a pH of about 5±0.5 or at pH of 5±0.2. Suitable compositions comprise Compound X in an aqueous solution, such as a dextrose or saline solution, which may be isotonic, and may contain other substances such as stabilizers, antioxidants, buffers or pH modifiers, nutrients, and the like. In some of these embodiments, the desired pH is achieved by combining Compound X and a pH modifier suitable to achieve the desired pH in an aqueous solution. Suitable pH modifiers include but are not limited to sodium hydroxide, sodium carbonate, sodium bicarbonate, potassium carbonate, potassium hydroxide, amines such as TRIS (tris(hydroxymethyl)aminomethane), and amino acids such as arginine, lysine, histidine, and the like. Known monobactams, including aztreonam, have been formulated with arginine. […]
# Photochemical stability = assay type: physicochemical
# Protocol: Compound X (500 mg) and L-arginine (332.5 mg) are combined in a vial. Saccharose (crystalline, pyrogen-free sucrose: 1000 mg) is added along with water suitable for injection (8.00 mL). The pH of the solution is adjusted, if necessary, using 1.0N HCl or 1.0N NaOH to arrive at a pH of 5.0±0.5, preferably a pH of 5.0±0.2. This provides a solution containing about 62.5 mg/mL of Compound X as an arginine salt. This solution can be filtered if necessary, and can be lyophilized to provide a white or off-white solid (lyophilizate). The lyophilized solid can be reconstituted with sterile water or a pharmaceutically acceptable aqueous carrier such as isotonic saline or dextrose to provide a solution suitable for intravenous administration. The lyophilizate should be stored in a container that excludes light to protect the lyophilizate from photodegradation. This process can be scaled up or down to provide unit dosages for storage and distribution, or bulk material that can be further processed as desired.
# In one embodiment of the invention, Compound X is packaged in a container that substantially reduces exposure to light, preferably in an atmosphere at a relative humidity of 25-50% humidity and more preferably at a relative humidity of 30-40% or 30-45%.
# [2] = test system: E. coli NB27273-CDY0033 (KPC2); test: MIC by broth microdilution, isogenic E. coli expressing KPC2; assay type: cell-based; settings: Escherichia coli, read-out: Inhibitory Concentration (MIC) Ec KPC2 Iso
# Protocol: (§1) Bacterial isolates were cultivated from −70° C. frozen stocks by two consecutive overnight passages at 35° C. in ambient air on 5% blood agar (Remel, Lenexa, Kans.). Quality control and P. aeruginosa ATCC 27853) is from the American Type Culture Collection (ATCC; Rockville, Md.) and PAO1 was received from Dr. K. Poole.
# Strain NB27273 (BW25113 pspB::Km^r) was obtained from the Keio transposon insertion collection. The strain has the pspB gene replaced by a kanamycin resistance marker (BW25113 pspB::Km^r). This strain was cured of the transposon in pspB via FLP recombinase using published methodology. The resulting strain, BW25113 pspB, was used as a host for multicopy vectors expressing key β-lactamases. Multicopy plasmids directing constitutive expression of β-lactamases were established as follows: Synthetic, codon optimized genes encoding E. coli KPC2 and SHV12-lactamases were made by DNA2.0 (Palo Alto, Calif.). Each of the synthetic fragments were designed to contain NotI and NcoI restriction sites at their termini, allowing ligation into a NotI/NcoI digested pET28a(+) derivative for protein expression. […]
# E. coli strain 25922 = test: MIC by broth microdilution, E. coli strain 25922; assay type: cell-based; settings: Escherichia coli, salt: none, read-out: Inhibitory Concentration (MIC) Ec 25922
# Protocol: as §1
# Minimal Inhibitory Concentrations (MICs) were determined by the broth microdilution method in accordance with Clinical and Laboratories Institute (CLSI) guidelines. In brief, fresh overnight bacterial cultures were suspended in sterile saline, and adjusted to a 0.5 McFarland turbidity standard. Bacterial suspensions were then diluted in cation adjusted Mueller-Hinton Broth (MHB II; BBL) to yield a final inoculum of approximately 5×10^5 colony-forming units (CFU)/mL. A master plate of antibiotics was prepared at a concentration equivalent to hundred-fold the highest desired final concentration in 100% dimethyl sulfoxide (DMSO). […] The assay plates were read using a microtiter plate reader (Molecular Devices) at 600 nm as well as by visual observation with a reading mirror. The lowest concentration of the compound that prevented visible growth was recorded as the MIC. Performance of the assay was monitored by testing aztreonam against laboratory quality control strains in accordance with guidelines of the CLSI.
structure (smiles),measurement,setting,value
"Nc1nc(/C(=N/OC2(C(=O)O)CC2)C(=O)N[C@@H]2C(=O)N(S(=O)(=O)O)[C@@H]2CN2CCOC2=O)cs1 [Compound X, 1-(((Z)-(1-(2-aminothiazol-4-yl)-2-oxo-2-(((3S,4R)-2-oxo-4-((2-oxooxazolidin-3-yl)methyl)-1-sulfoazetidin-3-yl)amino)ethylidene)amino)oxy)cyclopropanecarboxylic acid]",hydrolytic stability in water,[1],subject to hydrolytic degradation in water in the absence of a base or outside the pH range of 4-6
same,photochemical stability,Photochemical stability,degrade photochemically
same,MIC,[2],125 µg/mL
same,MIC,E. coli strain 25922,250 µg/mL
